# Peptide text beside a SMILES is read from it.
# Key:
# HT-1080 cells = experiment: In vitro cell attachment assay; type: cell-based; conditions: HT-1080 human fibrosarcoma cells; attachment to peptide-coated wells / inhibition of attachment to laminin; FIG. 1
# Protocol: HT-1080 cells from a human fibrosarcoma (Rasheed, S. et al., Cancer (Philadelphia) 33:1027 (1974) are maintained in Dulbecco's modified Eagle's medium (DMEM) supplemented with 10% fetal calf serum. After the cells are grown to 80% confluency, they are washed with 0.02M phosphate buffer, pH 7.4, without CA ^30 2 and Mg^30 2 and detached with a solution of 0.025% trypsin plus 0.025% ethylenediaminetetraacetic acid (EDTA; GIBCO). The cells are then pelleted by lowspeed centrifugation and resuspended in Eagle's minimal essential medium (EMEM) containing 0.02% bovine serum albumin (BSA, Sigma Chemical Co., St. Louis, Mo.). Cell attachment assays are performed as described in Klebe, R. J. Nature (London) 250:248 (1974), on tissue culture plastic substrates by using 16-mm Falcon tissue culture wells (Fisher Scientific Co., Pittsburg, Pa.) incubated with various peptides or with laminin in 1 mL of EMEM containing 0.02% BSA for 1 or 2 hours at 37° C. Cells (10^5 in 0.1 1 mL) are added to the wells, and the solution is incubated for an additional 1 hour at 37° C. in 95% air and 5% CO2. Subsequently, the wells are rinsed 3 times with 1 mL of phosphate-buffered saline (PBS) to remove unattached cells. Attached cells are trypsinized and counted electronically (Coulter, ZBI). […]
# B16F10 melanoma cells = experiment: Lung tumor colonization assay; type: in vivo, C57BL/6 female mice; conditions: B16F10 cells (5×10^5) mixed with 0.1 mL peptide at 5 mg/mL, tail vein injection, lungs counted after three weeks, FIG. 2
# Protocol: B16F10 melanoma cells, obtained from I. J. Fidler, M. D., Anderson Hospital, Houston, Tex., are propagated under standard culture conditions. The lung tumor colonization assay is carried out as described in Fidler, I. J., Nature (London) (New Biol) 242:148 (1973). Peptides are dissolved at 5 mg/mL in PBS and are filter-sterilized. The suspension of B16F10 cells (5×10^5) in 0.1 mL of DMEM is mixed with 0.1 mL of the peptide, (or 0.1 ml PBS in Control) incubated for 5 minutes at room temperature, and then injected into the tail vein of syngeneic C57BL/6 female mice (Jackson Labs., Bar Habor, Me.) at 6 weeks of age. Each treatment and control group consists of eight mice. Three weeks after the injections, the mice are killed and the number of pulmonary tumors on the surface of the lungs counted.
compound,measurement,setting,value
CC[C@H](C)[C@H](NC(=O)[C@H](Cc1ccc(O)cc1)NC(C)=O)C(=O)NCC(=O)N[C@@H](CO)C(=O)N[C@@H](CCCNC(=N)N)C(N)=O [AcYIGSR-NH2] (Ac-YIGSR-NH2),cell adhesion activity,HT-1080 cells,having cell adhesion activity
same,antimetastatic effectiveness (number of pulmonary tumors on the surface of the lungs) relative to YIGSR-NH2,B16F10 melanoma cells,at least twice as effective as YIGSR-NH2
same,antimetastatic effectiveness (number of pulmonary tumors on the surface of the lungs) relative to YIGSR-NH2,B16F10 melanoma cells; listed as peptide of the invention,at least twice as effective as linear YIGSR-NH2

# From patent publication US5039662A, “Peptide with anti-metastasis activity” (Monsanto, priority 1989, dated 1991)
